Assay results from the supplement of paper PMC10627819.

How the values were obtained:
S. pneumoniae D39V [1] = assay: Bliss interaction score (quartile over a dose matrix) (fitness difference); higher = more antagonism (negative = synergy)
Procedure, shortened: (§1)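 Fitness here means normalised growth, inferred for single drugs from the combination data. Growth was OD595 at entry into stationary phase, divided by the plate's robust no-drug mean and capped at 1. The Bliss score is observed minus expected fitness, with the expectation being the product, and its quartiles span technical, biological and donor/recipient replicates.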

S. aureus DSM 20231 [2] = assay: as above
Procedure, shortened: as §1

B. subtilis 168 [3] = assay: as above
Procedure, shortened: as §1

S. aureus Newman [4] = assay: as above
Procedure, shortened: as §1

S. pneumoniae D39V [5] = assay: fitness (endpoint OD595 vs no drug) (fraction); higher = more growth
Procedure, shortened: (§2)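 At 37 °C, bacteria in TSB, LB Lennox or CY were grown in 384-well plates from a starting OD595 of 0.01. OD595 was measured every 30 min for 14 h, with the first reading used as background. Fitness is the optical density at the switch to stationary phase as a fraction of the robust mean of no-drug control wells, capped at 1.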

B. subtilis 168 [6] = assay: as above
Procedure, shortened: as §2

S. aureus Newman [7] = assay: as above
Procedure, shortened: as §2

S. aureus DSM 20231 [8] = assay: as above
Procedure, shortened: as §2
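For Bliss interaction score (quartile over a dose matrix) in this document: first quartile when negative (synergy) and third quartile when positive (antagonism).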
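For fitness (endpoint OD595 vs no drug) in this document: OD595 on entry to stationary phase over no-drug wells; at most 1.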

Cc1ncc([N+](=O)[O-])n1CCO [Metronidazole] + CN[C@@H]1[C@H](O[C@H]2[C@H](O[C@H]3[C@H](O)[C@@H](O)[C@H](N=C(N)N)[C@@H](O)[C@@H]3N=C(N)N)O[C@@H](C)[C@]2(O)C=O)O[C@@H](CO)[C@H](O)[C@H]1O [Streptomycin]
Details | Bliss interaction score
B. subtilis 168 [3] | 0.0729
S. aureus DSM 20231 [2] | 0.0693
S. aureus Newman [4] | 0.0764
S. pneumoniae D39V [1] | 0.0448

fitness
Details | partner 1 µg/mL | partner 2 µg/mL | partner 4 µg/mL | partner 8 µg/mL
B. subtilis 168 [6], first compound 0.625 µg/mL | – | 0.996 | 0.657 | 0.0295
B. subtilis 168 [6], first compound 1.25 µg/mL | – | 0.997 | 0.633 | 0.0395
B. subtilis 168 [6], first compound 2.5 µg/mL | – | 0.995 | 0.636 | 0.0352
S. aureus Newman [7], first compound 0.625 µg/mL | 0.91 | 0.956 | 0.909 | –
S. aureus Newman [7], first compound 0.781 µg/mL | 0.966 | 0.899 | – | –
S. aureus Newman [7], first compound 1.25 µg/mL | 0.986 | 0.967 | 0.935 | –
S. aureus Newman [7], first compound 1.562 µg/mL | ≥ 1 | 0.917 | – | –
S. aureus Newman [7], first compound 2.5 µg/mL | 0.928 | 0.938 | 0.889 | –
S. aureus Newman [7], first compound 3.124 µg/mL | 0.982 | 0.926 | – | –
S. pneumoniae D39V [5], first compound 1.073 µg/mL | – | 0.903 | 0.992 | 0.945
S. pneumoniae D39V [5], first compound 1.25 µg/mL | – | – | 0.992 | 0.891
S. pneumoniae D39V [5], first compound 2.145 µg/mL | – | 0.935 | 0.977 | 0.932
S. pneumoniae D39V [5], first compound 2.5 µg/mL | – | – | 0.998 | 0.893
S. pneumoniae D39V [5], first compound 4.29 µg/mL | – | 0.871 | 0.905 | 0.945
S. pneumoniae D39V [5], first compound 5 µg/mL | – | – | 0.981 | 0.907

fitness, S. pneumoniae D39V [5], one replicate
Details | first compound 1.25 µg/mL | first compound 2.5 µg/mL | first compound 5 µg/mL
partner 2 µg/mL | ≥ 1 | ≥ 1 | 0.987
partner 16 µg/mL | 0.815 | 0.787 | 0.818

Cc1ncc([N+](=O)[O-])n1CCO [Metronidazole] + COc1cc(Cc2cnc(N)nc2N)cc(OC)c1OC [Trimethoprim]
Details | Bliss interaction score
B. subtilis 168 [3] | 0.11
S. aureus DSM 20231 [2] | -0.0577
S. aureus Newman [4] | 0.0902
S. pneumoniae D39V [1] | 0.232

fitness
Details | first compound 0.625 µg/mL | first compound 1.25 µg/mL | first compound 2.5 µg/mL
B. subtilis 168 [6], partner 0.25 µg/mL | 0.743 | 0.724 | 0.72
B. subtilis 168 [6], partner 0.5 µg/mL | 0.568 | 0.531 | 0.471
S. aureus DSM 20231 [8], partner 0.125 µg/mL | 0.704 | 0.744 | 0.749
S. aureus DSM 20231 [8], partner 0.25 µg/mL | 0.607 | 0.619 | 0.652
S. aureus DSM 20231 [8], partner 1 µg/mL | 0.0438 | 0.0565 | 0.0572

fitness, B. subtilis 168 [6], one replicate
Details | partner 0.1 µg/mL | partner 0.125 µg/mL | partner 0.2 µg/mL | partner 0.4 µg/mL | partner 1 µg/mL | partner 2 µg/mL
first compound 0.625 µg/mL | 0.832 | 0.747 | 0.759 | 0.572 | 0.419 | 0.373
first compound 1.25 µg/mL | 0.866 | 0.772 | 0.83 | 0.555 | 0.341 | 0.361
first compound 2.5 µg/mL | 0.956 | 0.785 | 0.828 | 0.578 | 0.396 | 0.44
